Experimental data: patent US12422438B2, “Means and methods for single molecule peptide sequencing” (VIB VZW, priority 2017, dated 2025)

T1: T. aquaticus aminopeptidase T (Thermus aquaticus, UniProt P23341)
T1 construct: 6xHis (C); made in house; host or cells: E. coli BL21(DE3), pET24b(+)
T1 sequence (P23341 with tags, fused parts or gaps): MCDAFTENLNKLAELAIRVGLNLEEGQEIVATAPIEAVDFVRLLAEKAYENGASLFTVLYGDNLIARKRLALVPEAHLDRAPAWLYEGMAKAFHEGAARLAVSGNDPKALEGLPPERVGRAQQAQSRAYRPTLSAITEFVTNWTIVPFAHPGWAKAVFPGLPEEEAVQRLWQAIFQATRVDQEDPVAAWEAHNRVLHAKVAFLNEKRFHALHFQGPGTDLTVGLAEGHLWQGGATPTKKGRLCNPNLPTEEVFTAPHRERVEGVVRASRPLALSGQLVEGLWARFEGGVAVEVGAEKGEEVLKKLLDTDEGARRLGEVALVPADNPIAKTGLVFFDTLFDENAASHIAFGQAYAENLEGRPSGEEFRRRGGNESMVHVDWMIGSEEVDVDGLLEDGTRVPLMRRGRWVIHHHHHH

B1: T. aquaticus aminopeptidase T (Thermus aquaticus) (protein)
chain: T1 sequence (P23341 with tags, fused parts or gaps)
notes: 6xHis (C); made in house; host or cells: E. coli BL21(DE3), pET24b(+)

Assays:
[1] = target: T1, T. aquaticus aminopeptidase T; assay type: biochemical; conditions: 40° C.; for Km / kcat: PBS; for Km: enzyme 2.0625 μM, substrate 0.0625-2 mM, Lineweaver-Burke plot; for kcat: kcat=Vmax/[E]; for on-time (min) / on-time (s): calculated as 1/kcat
Protocol: (§1) The kinetic parameters from T. aquaticus aminopeptidase T for cleaving different amino acid substrates was determined with a p-nitroanilide assay. Substrates consist of an N-terminal amino acid with a p-nitroanilide attached to its C-terminus. Upon amino acid cleavage, the free nitroanilide can be monitored by measuring the absorbance at 405 nm. T. aquaticus aminopeptidase T as depicted in SEQ ID No 8 was added in a concentration of 2.0625 μM (in PBS) to different concentrations of amino acid p-nitroanilide substrate (0.0625, 0.125, 0.25, 0.5, 1 and 2 mM in PBS). Subsequently p-nitroanilide release was continuously measured at 40° C. with a FLUOstar Omega microplate reader (MBG LabTech). From this, the initial velocity of the reaction at each substrate concentration was derived (v0). For each amino acid, a Lineweaver-Burke plot was generated from which the reaction Vmax and enzyme-substrate KM was determined. The turnover number, kcat, was calculated from the Vmax and the enzyme concentration (kcat=Vmax/[E]). The enzyme on-time value was then calculated by taking the reciprocal from the kcat value. The “on-time” values as shown in Table 1 are calculated as 1/kcat and as such is the overall time needed for an enzyme solution on the peptide until catalysis occurs.
(§2) The assays were performed at 40° C. below the enzyme's temperature optimum. Working more closely to the optimal temperature of 70° C. speeds up the reaction speed (kcat and enzyme on-time). […] The results as shown here not only validate the utility of the aminopeptidase as disclosed herein but also underpin and substantiate the methods and uses disclosed in current application.

[2] = Spontaneous Edman degradation (SPITC-induced cleavage) of amino acid p-nitroanilide substrates; conditions: 30 min at 40° C., 300 mM triethanolamine in 50% acetonitrile (pH 9)
Protocol: FIG. 16. Spontaneous Edman degradation of different amino acid p-nitroanilide substrates. A. Sulfophenyl isothiocyanate (SPITC, 15 mM) and substrate (1.5 mM) were incubated for 30 min at 40° C. in 300 mM triethanolamine in 50% ACN, after which the released p-nitroanilide was quantified by measuring the absorbance at 405 nm. B. Time-kinetic measurement of SPITC-induced amino acid p-nitroanilide substrate cleavage.
Importantly, this spontaneous cleavage activity is also observed under conditions that are not typically used during the cleavage step in the classic Edman degradation reaction. In classic Edman degradation. ITC coupling is achieved under mild alkaline conditions (pyridine, trimethylamine, N-methylpiperidine) and amino acid cleavage under acidic conditions (trifluoroacetic acid). Here both ITC coupling and amino acid cleavage is achieved under mild alkaline conditions (triethanolamine).

[3] = target: T1, T. aquaticus aminopeptidase T; experiment: Aminopeptidase assay with different amino acid p-nitroanilide substrates at 40° C. and 80° C.; assay type: biochemical; conditions: 2 h, PBS, substrate 1.5 mM
Protocol: FIG. 11. Aminopeptidase assay with different amino acid p-nitroanilide substrates. Enzyme and substrate (1.5 mM) were incubated for 2 h at 40° C. or 80° C. in PBS, after which the released p-nitroanilide was quantified by measuring the absorbance at 405 nm.
As described herein and in line with the invention described in current application, the activity differs between different amino acids. At 80° C., the panel of amino acid substrates can be roughly divided in fast-cleaved (L, M, Y, R, F) and slow-cleaved (D, P) substrates. However, at 40° C. it seems like the panel is divided in fast-cleaved (Y, R) and slow-cleaved (D, P), and substrates that lie in between (L, M, F). […] Finally, TagAPT is not only active in the p-nitroanilide assay. […] The N-terminal amino acid from peptides with proline at the second position is not easily cleaved since peptide bonds adjacent to the amino acid proline are resistant to cleavage by most peptidases (Iyver et al. 2015 FEBS Open Bio. 2015 Apr. 2; 5:292-302). In contrast to what Is stated in Minagawa et al (1988 Agricultural and Biological Chemistry 52:1755-1763) we show here that T. aquaticus aminopeptidase T can cleave N-terminal amino acids even when proline is at the second position. This surprising finding greatly enhances the generic use of Tag-APT in the method and uses disclosed in current application and in single molecule peptide sequencing in general.

[4] = substrate: CC(C)C[C@H](N)C(=O)Nc1ccc([N+](=O)[O-])cc1; experiment: purified protein, by the assay type; assay type: biochemical; conditions: other: 40° C., PBS, enzyme 2.0625 μM, substrate 0.0625-2 mM, Lineweaver-Burke plot
Protocol: as §1, §2

Row | Molecule | Km [1] | kcat [1] | on-time (min) [1] | on-time (s) [1] | cleavage speed category of substrate (endpoint activity measurement) [2] | cleavage speed category of substrate ([3]; 40° C.) | cleavage speed category of substrate ([3]; 80° C.) | Km [4] | kcat [4] | kcat/Km [4]
1 | C[C@H](N)C(=O)Nc1ccc([N+](=O)[O-])cc1 [Ala] | 736 µM | 0.01167 s⁻¹ | 1.4 min | 86 s | – | – | – | – | – | –
2 | NC(N)=NCCC[C@H](N)C(=O)Nc1ccc([N+](=O)[O-])cc1 [Arg] | 415 µM | 0.01638 s⁻¹ | 1.0 min | 61 s | fast-cleaved | fast-cleaved | fast-cleaved | – | – | –
3 | N[C@@H](CC(=O)O)C(=O)Nc1ccc([N+](=O)[O-])cc1 [D] | – | – | – | – | slow-cleaved | slow-cleaved | slow-cleaved | – | – | –
4 | N[C@@H](Cc1ccccc1)C(=O)Nc1ccc([N+](=O)[O-])cc1 [F] | – | – | – | – | fast-cleaved | in between | fast-cleaved | – | – | –
5 | NCC(=O)Nc1ccc([N+](=O)[O-])cc1 [Gly] | 765 µM | 0.00307 s⁻¹ | 5.4 min | 326 s | – | – | – | – | – | –
6 | CC(C)C[C@H](N)C(=O)Nc1ccc([N+](=O)[O-])cc1 [Leu, L-leucine-p-nitroanilide] | – | – | 6.5 min | 390 s | fast-cleaved | in between | fast-cleaved | – | – | –
7 | NCCCC[C@H](N)C(=O)Nc1ccc([N+](=O)[O-])cc1 [Lys] | 193 µM | 0.00148 s⁻¹ | 11.3 min | 677 s | – | – | – | – | – | –
8 | CSCC[C@H](N)C(=O)Nc1ccc([N+](=O)[O-])cc1 [Met] | 99 µM | 0.00471 s⁻¹ | 3.5 min | 212 s | fast-cleaved | in between | fast-cleaved | – | – | –
9 | O=C(Nc1ccc([N+](=O)[O-])cc1)[C@@H]1CCCN1 [Pro] | 546 µM | 0.00198 s⁻¹ | 8.4 min | 504 s | slow-cleaved | slow-cleaved | slow-cleaved | – | – | –
10 | N[C@@H](Cc1ccc(O)cc1)C(=O)Nc1ccc([N+](=O)[O-])cc1 [Tyr] | 211 µM | 0.00707 s⁻¹ | 2.4 min | 142 s | fast-cleaved | fast-cleaved | fast-cleaved | – | – | –
11 | CC(C)[C@H](N)C(=O)Nc1ccc([N+](=O)[O-])cc1 [Val] | 192 µM | 0.00138 s⁻¹ | 12.1 min | 727 s | – | – | – | – | – | –
12 | B1 | – | – | – | – | – | – | – | 92 µM | 0.00256 s⁻¹ | 27.9 M⁻¹ s⁻¹
